In patent publication US20130064870A1, “DRY POWDER INHALATION COMPOSITION” (SUN PHARMA ADVANCED RESEARCH COMPANY LIMITED, priority 2010, published 2013):
Where “and” joins values, the source holds several entries; their conditions need not be identical. Equal values may be shown once.

Columns and labels:
Format in all cases: physicochemical
[1] = Polymorphic purity by differential scanning calorimetry (DSC); details: micronized, conditioned 80 hr at 40° C., 80 bar, CO2
[2] = as above
Protocol: The phrase ‘substantially free of polymorph II’ means the micronized salmeterol xinafoate having not more than 5%, preferably not more than 3%, most preferably not more than 1% of polymorph II. The polymorphic purity of the salmeterol xinafoate can be determined by any known analytical method. According to the present invention, the polymorphic purity is determined by differential scanning calorimeter (DSC). The melting points of polymorph I and polymorph II are distinct and this method can determine the presence of two.
In one embodiment, the salmeterol xinafoate was obtained by micronizing salmeterol xinafoate by milling in a jet mill with grinding parameters are as follows: grinding pressure: 1-5 bars, feed pressure: 2-10 bars, feed rate of 0.1-10 g/min, followed by subjecting the micronized material to a temperature of about 50° C. to 90° C., wherein the conditioning cycle is carried out for a time period o about 1 hour to 120 hours, preferably, 1 to 50 hours, most preferably, 20 hrs to 40 hrs. The polymorphic purity of the resultant salmeterol xinafoate so obtained was determined by recording the differential scanning calorimetry (See FIGS. 3-5).
The results of the polymorphic purity were determined by differential scanning calorimeter and are tabulated below

[3] = In vitro cascade impactor test (fine particle fraction/dose, MMAD, GSD, deposition), USP <601>; details: applicant's patented device
From the text: A cascade impactor is a multi-stage sampling device for determining the size distribution of a particulate aerosol. The aerosol flows into the impactor whereupon it impinges upon a sequence of solids discs. Each disc (which represents a ‘stage’) is contained within a flow chamber and each chamber is connected in a vertical arrangement to the previous and next chamber in the sequence. Larger particles impact on the first disc and are captured. The sampling velocity increases for each successive chamber/disc so that successively smaller particles are collected. The final stage is typically a fine filter septum. Up to 10 stages are often used which divides the size distribution into an equivalent number of portions. The present invention may use eight Stage Sampler which meets the guidelines of the various world pharmacopoeias (e.g., United States Pharmacopoeia Chapter 601 “USP <601>”) to characterize metered-dose (MDI) and dry powder-dose inhalers (DPI), nebulizers, nasal sprays and other pulmonary drugs or a Next generation impactor (NGI) by Anderson. The testing of inhalation drugs goes hand and hand with cascade impactors, the size ranges collected are considered inhalable (generally <10 μm), just as the inhalation drugs should consistently arrive within the respiratory system into their target regions, the various stages represent the cut-off sizes when deposition may occur within the lungs.
In order to evaluate the effect of the dry powder inhalation composition itself, the composition was delivered via two different inhalation devices namely, a marketed inhalation device, namely, such as for example Rotahaler® and the applicant's own patented device. The % fine particle fraction and mass mean aerodynamic diameter was determined by testing in vitro in cascade impactor. The therapeutic efficacy of the composition of the present invention in terms of fine particle fraction was determined by a cascade impaction method official in the United States Pharmacopoeia, chapter <601>.
The conditioned micronized salmeterol xinafoate having mean particle size of […] and a tapped density in the range of 0.20 g·cm^−3 to 0.45 g·cm^−3 was tested for fine particle fraction, mass mean aerodynamic diameter in a cascade impactor. The composition was delivered using the applicant's patented device as described in the description. The results of the in-vitro testing are provided below in Table 2:
The composition of dry powder inhalation was subjected to fine particle dose determination. This was determined according to the procedure given in USP chapter <601>. The fine particle fraction was measured in terms of deposition at various stages as per the pharmacopoeial method. […]

[4] = Mean particle size (D50) by laser light diffraction
Protocol: The term ‘mean particle size’ as used herein means the particle size distribution of 50% of the population of the particles is less than the specified value. The particle size was measured using laser light diffraction method of particle size analysis.

[5] = Tapped density
From the text: The term ‘tapped density’ as used herein means that density attained after mechanically tapping a receptacle containing the powder sample.

[6] = micronized, before conditioning at 40° C./80 bar CO2
[7] = micronized, conditioned 40 hr at 85° C., air, no pressure
[8] = micronized, not conditioned (FIG. 3)
[9] = un-micronized salmeterol xinafoate (FIG. 2)
[10] = batch D50 4.02, tapped density 0.25
[11] = batch D50 5.99, tapped density 0.43

OCc1cc(C(O)CNCCCCCCOCCCCc2ccccc2)ccc1O (stereo not drawn) [salmeterol xinafoate]
% Salmeterol xinafoate Polymorph form I [1]: 85.95% | % Salmeterol xinafoate Polymorph form II [1]: 9.09% | % polymorph I [2, 6]: 44.18% | % polymorph II [2, 6]: 34.34% | % Salmeterol xinafoate Polymorph form I ([2]; micronized, conditioned 24 hr at 85° C., air, no pressure): 92.78% | % Salmeterol xinafoate Polymorph form I [2, 7]: 96.40% | % Salmeterol xinafoate Polymorph form II [2, 7]: 3.66% and 3.60% | % polymorph I [2, 8]: 69.20% | % polymorph II [2, 8]: 30.80% | % polymorph form I [2, 9]: 88.8% | % polymorph form II [2, 9]: 11.20% | % FPF Mean [3, 10]: 41.115% | GSD Mean [3, 10]: 1.747 | % FPF Mean [3, 11]: 20.91% | GSD Mean [3, 11]: 1.734 | Mean particle size D50 ([4]; conditioned micronized batch with tapped density 0.25): about 4.02 μms | Mean particle size D50 ([4]; conditioned micronized batch with tapped density 0.25, listed as salmeterol xinofoate): 4.02 μms | Mean particle size D50 ([4]; conditioned micronized batch with tapped density 0.43): about 6 μms | Mean particle size D50 ([4]; conditioned micronized batch with tapped density 0.43, listed as salmeterol xinofoate): 5.99 μms | Tapped density ([5]; conditioned micronized batch with D50 4.02): 0.25 g/mL | Tapped density ([5]; conditioned micronized batch with D50 5.99): 0.43 g/mL
